The results in this text go back to patent publication US8937091B2 (Japan Science and Technology Agency, priority 2009, dated 2015).

The structures appear in SMILES notation.

Assay [1] has as its system SOCE (store operated calcium entry) in CHO cells. The assay can be described thus: Assay of SOCE (store operated calcium entry)-inhibiting action. It counts as cell-based, Chinese hamster. The following applies: CHO cells, thapsigargin; for inhibition at 10 µM / inhibition at 30 µM / inhibition at 100 µM: Cricetulus griseus, CHO, read-out: SOCE level (percentage of inhibition); for inhibition at 10 µM: test compound 10 μmol. Summed up:
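CHO cells in calcium-free BSS received compound, then 1 μM thapsigargin 2 min later to deplete stores; after 9 min, 2 mM calcium chloride (final) added. Percent inhibition of the rise in intracellular calcium determined at various compound concentrations.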

Assay [2] has as its system IICR (IP3 induced calcium release) in CHO cells. The assay can be described thus: Assay of IICR (IP3 induced calcium release)-inhibiting action. It counts as cell-based, Chinese hamster. The following applies: CHO cells, 10 μM ATP; for inhibition at 10 µM / inhibition at 30 µM / inhibition at 100 µM: Cricetulus griseus, CHO, read-out: IICR level (percentage of inhibition). The essentials:
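Inhibition (%) of the intracellular calcium increase triggered by 10 μM ATP, measured in CHO cells in BSS with calcium. Compound given 1 min after the buffer exchange and 2 min before ATP; values reported per compound concentration.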

One may read the inhibition as how much of the control response was suppressed. Turning to `CC(C)(C)N(CCO)CCC(=O)c1cccnc1` [Example 232, 2-(N-t-butyl-2-hydroxyethyl)aminoethyl-3-pyridylketone], the inhibition at 10 µM in assay [1] and in assay [2] (test compound 10 μmol) was 0% in each case. Moreover, the inhibition at 30 µM is 0% in assay [1] (test compound 30 μmol) and 10% in assay [2] (test compound 30 μmol). The inhibition at 100 µM was determined as 0% in assay [1] (test compound 100 μmol) and 10% in assay [2] (test compound 100 μmol).
For the compound `CC(C)N(CCO)CCC(=O)c1ccncc1` [Example 155, 2-(N-hydroxyethylisopropyl)aminoethyl-4-pyridylketone], the inhibition at 10 µM in assay [1] was found to be 0%; in assay [2] (test compound 10 μmol), 20%. Further, the inhibition at 30 µM in assay [1] (test compound 30 μmol) was 0%; in assay [2] (test compound 30 μmol), 50%. Further, the figures for the inhibition at 100 µM in assay [1] (test compound 100 μmol) and in assay [2] (test compound 100 μmol) were 0% and 80%, respectively.
As for `O=C(CCNCCO)c1ccc(Br)s1` [Example 307, 2-(N-hydroxyethyl)aminoethyl-5-bromo-2-thienylketone], the inhibition at 10 µM in assay [1] amounted to 0%. Further, the “SOCE level (percentage of inhibition)” value in assay [1] (test compound 30 μmol) and in assay [1] (test compound 100 μmol) was 10% throughout. The “IICR level (percentage of inhibition)” value in assay [2] (test compound 10 μmol) is given as 30%; in assay [2] (test compound 30 μmol), 20%; in assay [2] (test compound 100 μmol), 30%.
Regarding `Cc1ccc(C(=O)CCN(Cc2ccccc2)C(C)(C)C)s1` [Example 316, 2-(N-benzyl-t-butyl)aminoethyl-5-methyl-2-thienylketone], the inhibition at 10 µM was determined as 0% in assay [1] and 70% in assay [2] (test compound 10 μmol). Besides, the inhibition at 30 µM in assay [1] (test compound 30 μmol) is 10%; in assay [2] (test compound 30 μmol) it was 80%. In addition, the inhibition at 100 µM in assay [1] (test compound 100 μmol) is 20%; in assay [2] (test compound 100 μmol), 100%.
With `CCCCCCN(CCCCCC)CCC(=O)c1ccc(Br)s1` [Example 383, 2-(N,N-dihexyl)aminoethyl-5-bromo-2-thienylketone], the inhibition at 10 µM in assay [1] came out at 25%; in assay [2] (test compound 10 μmol), 0%. The inhibition at 30 µM turned out to be 16% in assay [1] (test compound 30 μmol) and 5% in assay [2] (test compound 30 μmol). For the same compound, the results for the inhibition at 100 µM in assay [1] (test compound 100 μmol) and in assay [2] (test compound 100 μmol) were 46% and 0%, respectively.
In the case of `Cc1ccsc1C(=O)CCN(Cc1ccccc1)C(C)(C)C` [Example 314, 2-(N-benzyl-t-butyl)aminoethyl-3-methyl-2-thienylketone], the inhibition at 10 µM was 0% in assay [1] and 70% in assay [2] (test compound 10 μmol). Moreover, the inhibition at 30 µM in assay [1] (test compound 30 μmol) is 10%; in assay [2] (test compound 30 μmol), 70%. The inhibition at 100 µM was determined as 20% in assay [1] (test compound 100 μmol) and 100% in assay [2] (test compound 100 μmol).
Consider `Cc1ccc(C(=O)CCN(C)Cc2ccccc2)o1` [Example 241, 2-(N-benzylmethyl)aminoethyl-5-methyl-2-furylketone], for which the inhibition at 10 µM in assay [1] and in assay [2] (test compound 10 μmol) was 0% in each case. The inhibition at 30 µM in assay [1] (test compound 30 μmol) and in assay [2] (test compound 30 μmol) was 0% each time. The inhibition at 100 µM in assay [1] (test compound 100 μmol) came out at 10%; in assay [2] (test compound 100 μmol), 70%.
Consider `Cc1ccc(C(=O)CCN(CCO)Cc2ccccc2)o1` [Example 139, 2-(N-benzylhydroxyethyl)aminoethyl-5-methyl-2-furylketone], for which the inhibition at 10 µM in assay [1] came out at 0%; in assay [2] (test compound 10 μmol), 20%. Also, the inhibition at 30 µM stood at 0% in assay [1] (test compound 30 μmol) and 20% in assay [2] (test compound 30 μmol). Moreover, the inhibition at 100 µM was 0% in assay [1] (test compound 100 μmol) and 30% in assay [2] (test compound 100 μmol).
On to `CCN(CCO)CCC(=O)c1cc(C)sc1C` [Example 228, 2-(N-2-hydroxyethylethyl)aminoethyl-2,5-dimethyl-3-thiophenylketone], for which the inhibition at 10 µM in assay [1] was 0%; in assay [2] (test compound 10 μmol), 20%. Further, the inhibition at 30 µM in assay [1] (test compound 30 μmol) and in assay [2] (test compound 30 μmol) was 0% throughout. The inhibition at 100 µM in assay [1] (test compound 100 μmol) and in assay [2] (test compound 100 μmol) was 20% in each case.
For the compound `O=C(CCNCCc1ccccc1)c1ccco1` [Example 300, 2-(N-phenethyl)aminoethyl-2-furylketone], the inhibition at 30 µM is 20% in assay [1] (test compound 30 μmol) and 0% in assay [2] (test compound 30 μmol). Besides, the inhibition at 100 µM in assay [1] (test compound 100 μmol) worked out at 40%; in assay [2] (test compound 100 μmol), 10%. The inhibition at 10 µM in assay [2] (test compound 10 μmol) is 30%.
For `CC(C)N(CCC(=O)c1ccc(Oc2ccccc2)cc1)Cc1ccccc1` [Example 85, 2-(N-isopropylbenzyl)aminoethyl-4-phenoxyphenylketone], the inhibition at 10 µM in assay [1] is 10%; in assay [2] (test compound 10 μmol) it was 50%. For the same compound, the inhibition at 30 µM in assay [1] (test compound 30 μmol) was found to be 20%; in assay [2] (test compound 30 μmol) it was 50%. Besides, the inhibition at 100 µM in assay [1] (test compound 100 μmol) stood at 30%; in assay [2] (test compound 100 μmol) it was 95%.
With `CCCCN(CCC(=O)c1ccco1)Cc1ccccc1` [Example 377, 2-(N-butyl-N-benzyl)aminoethyl-2-furylketone], the inhibition at 10 µM worked out at 21% in assay [1] and 22% in assay [2] (test compound 10 μmol). Further, the inhibition at 30 µM in assay [1] (test compound 30 μmol) stood at 0%; in assay [2] (test compound 30 μmol), 20%. Moreover, the inhibition at 100 µM came out at 27% in assay [1] (test compound 100 μmol) and 36% in assay [2] (test compound 100 μmol).
In the case of `CC(C)N(CCO)CCC(=O)c1nccs1` [Example 156, 2-(N-hydroxyethylisopropyl)aminoethyl-2-thiazolylketone], the inhibition at 10 µM was 0% in assay [1] and 20% in assay [2] (test compound 10 μmol). The inhibition at 30 µM in assay [1] (test compound 30 μmol) was found to be 10%; in assay [2] (test compound 30 μmol) it was 30%. The results for the inhibition at 100 µM in assay [1] (test compound 100 μmol) and in assay [2] (test compound 100 μmol) were 20% and 60%, respectively.
Regarding `CC(C)N(CCC(=O)c1cccc2ccccc12)Cc1ccccc1` [Example 82, 1-(N-benzylisopropyl)aminoethyl-1-naphthylketone], the inhibition at 10 µM came to 0% in assay [1] and 50% in assay [2] (test compound 10 μmol). For the same compound, the inhibition at 30 µM in assay [1] (test compound 30 μmol) stood at 0%; in assay [2] (test compound 30 μmol) it was 70%. Besides, the inhibition at 100 µM was 20% in assay [1] (test compound 100 μmol) and 100% in assay [2] (test compound 100 μmol).
As to `O=C(CCN(CCO)Cc1ccccc1)c1cccs1` [Example 245, 2-(N-benzyl-2-hydroxyethyl)aminoethyl-2-thiophenylketone], the inhibition at 10 µM in assay [1] and in assay [2] (test compound 10 μmol) was 0% each time. Also, the inhibition at 30 µM in assay [1] (test compound 30 μmol) and in assay [2] (test compound 30 μmol) was 0% each time. Moreover, the inhibition at 100 µM in assay [1] (test compound 100 μmol) and in assay [2] (test compound 100 μmol) was 0% throughout.
In the case of `O=C(CCN(CCO)c1ccccc1)c1ccncc1` [Example 134, 2-(N-phenylhydroxyethyl)aminoethyl-4-pyridylketone], the results for the inhibition at 10 µM in assay [1] and in assay [2] (test compound 10 μmol) were 0% and 20%, respectively. Besides, the inhibition at 30 µM worked out at 0% in assay [1] (test compound 30 μmol) and 20% in assay [2] (test compound 30 μmol). The inhibition at 100 µM was 0% in assay [1] (test compound 100 μmol) and 30% in assay [2] (test compound 100 μmol).
For `CN(CCC(=O)c1ccc(Oc2ccccc2)cc1)Cc1ccccc1` [Example 86, 2-(N-methylbenzyl)aminoethyl-4-phenoxyphenylketone], the inhibition at 10 µM in assay [1] came out at 0%; in assay [2] (test compound 10 μmol), 30%. The inhibition at 30 µM turned out to be 20% in assay [1] (test compound 30 μmol) and 70% in assay [2] (test compound 30 μmol). Further, the inhibition at 100 µM in assay [1] (test compound 100 μmol) was 50%; in assay [2] (test compound 100 μmol), 95%.
Consider `CN(CCO)CCC(=O)c1nccs1` [Example 291, 2-(N-2-hydroxyethylmethyl)aminoethyl-2-thiazolylketone], for which the values for the inhibition at 10 µM in assay [1] and in assay [2] (test compound 10 μmol) were 0% and 40%, respectively. Moreover, the inhibition at 30 µM in assay [1] (test compound 30 μmol) was 0%; in assay [2] (test compound 30 μmol), 70%. The inhibition at 100 µM in assay [1] (test compound 100 μmol) was 0%; in assay [2] (test compound 100 μmol) it was 100%.
Take `O=C(CCNCCC1=NCN=C1)c1ccc(Oc2ccccc2)cc1` [Example 113]: the results for the inhibition at 10 µM in assay [1] and in assay [2] (test compound 10 μmol) were 0% and 70%, respectively. The results for the inhibition at 30 µM in assay [1] (test compound 30 μmol) and in assay [2] (test compound 30 μmol) were 10% and 90%, respectively. The inhibition at 100 µM in assay [1] (test compound 100 μmol) turned out to be 40%; in assay [2] (test compound 100 μmol), 100%.
For `CCc1nccnc1C(=O)CCN(Cc1ccccc1)C(C)(C)C` [Example 188, 2-(N-t-butylbenzyl)aminoethyl-2-(3-ethyl)-pyrazylketone], the inhibition at 10 µM in assay [1] is 0%; in assay [2] (test compound 10 μmol) it was 50%. In addition, the inhibition at 30 µM was found to be 0% in assay [1] (test compound 30 μmol) and 90% in assay [2] (test compound 30 μmol). In addition, the results for the inhibition at 100 µM in assay [1] (test compound 100 μmol) and in assay [2] (test compound 100 μmol) were 20% and 100%, respectively.
Turning to `Cc1csc(C(=O)CCN(C)Cc2ccccc2)n1` [Example 265, 2-(N-benzylmethyl)aminoethyl-4-methyl-2-thiazolylketone], the inhibition at 10 µM in assay [1] was found to be 10%; in assay [2] (test compound 10 μmol) it was 0%. Further, the inhibition at 30 µM in assay [1] (test compound 30 μmol) was found to be 10%; in assay [2] (test compound 30 μmol) it was 0%. The results for the inhibition at 100 µM in assay [1] (test compound 100 μmol) and in assay [2] (test compound 100 μmol) were 10% and 70%, respectively.
As to `CC(C)N(CCC(=O)c1nccs1)Cc1ccccc1` [Example 120, 2-(N-isopropylbenzyl)aminoethyl-2-thiazolylketone], the results for the inhibition at 10 µM in assay [1] and in assay [2] (test compound 10 μmol) were 0% and 10%, respectively. The figures for the inhibition at 30 µM in assay [1] (test compound 30 μmol) and in assay [2] (test compound 30 μmol) were 0% and 90%, respectively. Further, the results for the inhibition at 100 µM in assay [1] (test compound 100 μmol) and in assay [2] (test compound 100 μmol) were 20% and 100%, respectively.
